Calls of active or inactive are those of the source.
What was measured:
[1] = tested on: T-cell; test: loss of vesicle association with mouse CD8+ T cells – mouse 2C CD8+ T cells, flow cytometry, dose response (AID 485284); format: functional
[2] = tested on: Vero; test: mammalian cell viability reduction – secondary assay, cytotoxicity control for West Nile virus antiviral project, dose response (AID 1650); format: functional; conditions: Chlorocebus sabaeus
[3] = target: T1, Short transient receptor potential channel 4 (Mus musculus, UniProt Q9QUQ5); test: potentiation of DAMGO-evoked TRPC4 calcium signal – cell-based, HEK293 TRPC4/mu-opioid, Fluo-4 calcium, EC20 DAMGO, dose response (AID 434941); format: functional
T1 sequence (Q9QUQ5 whole entry): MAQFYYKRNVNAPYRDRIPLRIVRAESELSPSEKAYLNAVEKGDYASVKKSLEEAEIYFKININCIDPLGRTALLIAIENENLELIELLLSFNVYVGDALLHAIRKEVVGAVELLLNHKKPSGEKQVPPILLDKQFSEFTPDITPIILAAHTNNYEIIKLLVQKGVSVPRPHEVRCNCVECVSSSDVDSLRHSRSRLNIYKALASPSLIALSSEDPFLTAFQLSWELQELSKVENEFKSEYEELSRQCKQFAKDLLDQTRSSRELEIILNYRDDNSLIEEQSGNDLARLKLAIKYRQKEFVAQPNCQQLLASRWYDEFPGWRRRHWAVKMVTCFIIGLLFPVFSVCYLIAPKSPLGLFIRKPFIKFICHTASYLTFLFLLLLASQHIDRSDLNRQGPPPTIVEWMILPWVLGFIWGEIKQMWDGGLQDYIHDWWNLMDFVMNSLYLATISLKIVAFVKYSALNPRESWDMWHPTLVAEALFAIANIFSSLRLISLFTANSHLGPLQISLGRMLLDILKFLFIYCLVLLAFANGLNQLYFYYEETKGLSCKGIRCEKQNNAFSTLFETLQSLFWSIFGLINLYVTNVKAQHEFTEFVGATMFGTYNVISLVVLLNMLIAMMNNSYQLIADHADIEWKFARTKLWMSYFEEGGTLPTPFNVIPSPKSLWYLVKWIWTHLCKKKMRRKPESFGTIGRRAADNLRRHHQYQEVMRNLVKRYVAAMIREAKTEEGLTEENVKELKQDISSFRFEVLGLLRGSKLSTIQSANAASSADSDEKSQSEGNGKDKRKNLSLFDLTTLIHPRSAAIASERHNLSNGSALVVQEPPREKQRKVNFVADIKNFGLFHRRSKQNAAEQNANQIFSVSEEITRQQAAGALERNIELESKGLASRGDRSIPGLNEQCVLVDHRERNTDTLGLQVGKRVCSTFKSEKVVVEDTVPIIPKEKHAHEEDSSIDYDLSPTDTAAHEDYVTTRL

[4] = target: T2, Ubiquitin-conjugating enzyme E2 N (Homo sapiens, UniProt P61088); format: functional;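 also: Dose-response confirmation in a TR-FRET assay detecting UBC13-driven polyubiquitin chain formation, inhibition measured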
T2 sequence (P61088 whole entry): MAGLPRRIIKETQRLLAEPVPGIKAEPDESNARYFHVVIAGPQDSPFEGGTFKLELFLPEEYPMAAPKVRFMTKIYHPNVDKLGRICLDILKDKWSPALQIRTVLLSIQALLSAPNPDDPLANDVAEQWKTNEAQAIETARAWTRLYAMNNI

[5] = NIH3T3 cell viability loss – ATP luminescence, mouse fibroblasts, counter-screen, dose response (AID 2010); format: functional, cell-based;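 also: cells exposed to compound for about 90 hours before reading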
[6] = Trypanosoma cruzi growth suppression in host cells – NIH3T3 host cells, beta-gal luminescence, confirmation (AID 2044); format: functional, cell-based;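 also: intracellular parasites grown in NIH/3T3 mouse fibroblasts as host cells; luminescent beta-galactosidase reporter signal from transgenic T. cruzi replicating inside host cells; inhibitors lower the luminescence signal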
[7] = target: T3, ORF 73 (Human herpesvirus 8, UniProt O40947); test: KSHV LANA DNA-binding disruption – biochemical, fluorescence polarization, cherry-picked samples, dose response (AID 504725); design: species or system Human gammaherpesvirus 8;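 also: fluorescence polarization of a labeled DNA duplex reporting LANA DNA binding; potency is for inhibitors that block LANA binding to the DNA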
T3 sequence (O40947 whole entry): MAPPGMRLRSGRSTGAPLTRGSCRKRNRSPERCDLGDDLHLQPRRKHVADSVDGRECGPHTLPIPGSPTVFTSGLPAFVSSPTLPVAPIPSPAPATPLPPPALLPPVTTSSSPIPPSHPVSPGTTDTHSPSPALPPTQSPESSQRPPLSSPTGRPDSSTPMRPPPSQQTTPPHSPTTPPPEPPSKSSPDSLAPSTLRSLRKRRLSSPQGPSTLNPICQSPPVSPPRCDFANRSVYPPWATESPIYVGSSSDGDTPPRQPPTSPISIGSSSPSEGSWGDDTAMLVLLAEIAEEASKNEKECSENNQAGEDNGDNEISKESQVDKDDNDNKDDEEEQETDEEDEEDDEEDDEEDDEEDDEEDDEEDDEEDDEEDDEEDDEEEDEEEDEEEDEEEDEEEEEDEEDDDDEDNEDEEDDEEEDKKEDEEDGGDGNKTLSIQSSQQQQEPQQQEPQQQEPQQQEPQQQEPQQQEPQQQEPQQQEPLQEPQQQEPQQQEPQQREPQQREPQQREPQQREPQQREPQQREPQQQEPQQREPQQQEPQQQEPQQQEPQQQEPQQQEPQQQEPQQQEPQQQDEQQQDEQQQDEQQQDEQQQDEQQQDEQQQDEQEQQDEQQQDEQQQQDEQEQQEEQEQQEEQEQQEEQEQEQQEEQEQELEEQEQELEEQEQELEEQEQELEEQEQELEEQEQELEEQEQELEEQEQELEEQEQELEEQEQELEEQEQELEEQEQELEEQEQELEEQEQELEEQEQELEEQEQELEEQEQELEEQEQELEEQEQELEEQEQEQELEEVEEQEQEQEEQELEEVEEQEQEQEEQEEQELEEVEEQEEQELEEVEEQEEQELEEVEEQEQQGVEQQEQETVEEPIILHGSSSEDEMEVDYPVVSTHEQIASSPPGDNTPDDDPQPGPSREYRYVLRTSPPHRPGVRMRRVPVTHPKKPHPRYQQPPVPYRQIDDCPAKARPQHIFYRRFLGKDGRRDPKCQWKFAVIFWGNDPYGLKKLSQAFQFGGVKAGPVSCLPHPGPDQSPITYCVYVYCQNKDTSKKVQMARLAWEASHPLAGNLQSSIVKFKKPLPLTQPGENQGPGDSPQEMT

[8] = target: T4, Rac GTPase-activating protein 1 (Homo sapiens, UniProt Q9H0H5); test: blockers of MgcRacGAP-driven Rac1 GTP hydrolysis – biochemical, ADP Hunter fluorescence, primary and confirmatory, confirmation (AID 624330); format: functional
T4 sequence (Q9H0H5 whole entry): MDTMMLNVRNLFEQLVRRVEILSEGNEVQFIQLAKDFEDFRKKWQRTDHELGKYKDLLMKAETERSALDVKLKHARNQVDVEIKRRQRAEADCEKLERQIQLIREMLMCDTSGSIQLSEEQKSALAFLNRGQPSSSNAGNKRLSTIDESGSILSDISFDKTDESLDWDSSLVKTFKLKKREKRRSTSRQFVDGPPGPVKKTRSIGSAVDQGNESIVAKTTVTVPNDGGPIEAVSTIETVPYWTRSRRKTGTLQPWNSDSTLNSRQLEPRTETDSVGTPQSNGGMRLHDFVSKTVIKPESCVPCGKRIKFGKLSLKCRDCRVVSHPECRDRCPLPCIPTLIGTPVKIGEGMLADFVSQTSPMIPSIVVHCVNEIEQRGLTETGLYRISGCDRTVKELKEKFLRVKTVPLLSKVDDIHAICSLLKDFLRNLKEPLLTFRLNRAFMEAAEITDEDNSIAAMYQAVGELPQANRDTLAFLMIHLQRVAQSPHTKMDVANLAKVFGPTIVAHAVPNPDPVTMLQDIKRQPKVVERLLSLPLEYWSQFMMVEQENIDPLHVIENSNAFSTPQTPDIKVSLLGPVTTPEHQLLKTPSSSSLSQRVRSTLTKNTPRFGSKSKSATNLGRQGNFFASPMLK

[9] = target: Troponin, cardiac muscle (Homo sapiens, UniProt P19429+P45379+P63316); test: compounds desensitizing RTF to calcium – biochemical, fluorescence, cardiac regulated thin filaments, triplicate IC50, dose response (AID 504742); format: protein-complex assay
[10] = target: Large T antigen (Simian virus 40, UniProt P03070); format: functional, Betapolyomavirus macacae;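 also: Confirmatory-stage PubChem screen for compounds that inhibit SV40 T antigen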
Large T antigen, sequence (P03070 whole entry): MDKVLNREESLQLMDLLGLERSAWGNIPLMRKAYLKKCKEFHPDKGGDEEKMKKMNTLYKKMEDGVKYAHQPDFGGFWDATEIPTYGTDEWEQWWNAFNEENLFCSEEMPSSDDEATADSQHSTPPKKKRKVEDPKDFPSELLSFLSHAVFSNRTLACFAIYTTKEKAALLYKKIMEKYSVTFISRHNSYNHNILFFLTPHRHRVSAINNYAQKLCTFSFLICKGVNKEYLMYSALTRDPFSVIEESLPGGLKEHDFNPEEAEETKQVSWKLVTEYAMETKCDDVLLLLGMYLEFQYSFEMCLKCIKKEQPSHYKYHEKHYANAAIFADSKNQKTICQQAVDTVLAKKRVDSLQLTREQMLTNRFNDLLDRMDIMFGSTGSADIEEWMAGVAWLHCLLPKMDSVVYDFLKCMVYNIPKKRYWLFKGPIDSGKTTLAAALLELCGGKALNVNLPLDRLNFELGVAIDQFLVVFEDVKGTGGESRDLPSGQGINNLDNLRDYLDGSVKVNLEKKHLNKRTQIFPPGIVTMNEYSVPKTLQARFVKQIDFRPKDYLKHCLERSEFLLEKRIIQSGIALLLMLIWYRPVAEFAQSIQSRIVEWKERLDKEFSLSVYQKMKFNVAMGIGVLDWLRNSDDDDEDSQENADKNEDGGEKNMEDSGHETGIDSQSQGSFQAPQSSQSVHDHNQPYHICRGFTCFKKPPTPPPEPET

[11] = target: T5, Tyrosine-protein phosphatase non-receptor type 7 (Homo sapiens, UniProt P35236); test: redox-active compounds inhibiting HePTP phosphatase – biochemical, fluorescence, mechanism study (AID 2068); format: functional
T5 sequence (P35236 whole entry): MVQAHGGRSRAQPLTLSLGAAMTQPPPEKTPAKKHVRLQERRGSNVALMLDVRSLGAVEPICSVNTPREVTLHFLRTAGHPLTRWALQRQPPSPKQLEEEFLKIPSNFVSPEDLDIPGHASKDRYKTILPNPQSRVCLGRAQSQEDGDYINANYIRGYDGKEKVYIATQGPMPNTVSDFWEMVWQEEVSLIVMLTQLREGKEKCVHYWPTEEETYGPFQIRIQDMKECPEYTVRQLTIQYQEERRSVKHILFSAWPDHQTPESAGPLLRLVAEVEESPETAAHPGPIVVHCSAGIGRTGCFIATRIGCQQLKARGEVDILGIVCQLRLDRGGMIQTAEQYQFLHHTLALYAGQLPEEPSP

[12] = HPDE-C7 pancreatic duct cell viability loss – fluorescence, HTS (AID 430); format: functional, cell-based; conditions: Homo sapiens
[13] = target: Glyceraldehyde-3-phosphate dehydrogenase (Homo sapiens, UniProt P04406)
Glyceraldehyde-3-phosphate dehydrogenase, sequence (P04406 whole entry): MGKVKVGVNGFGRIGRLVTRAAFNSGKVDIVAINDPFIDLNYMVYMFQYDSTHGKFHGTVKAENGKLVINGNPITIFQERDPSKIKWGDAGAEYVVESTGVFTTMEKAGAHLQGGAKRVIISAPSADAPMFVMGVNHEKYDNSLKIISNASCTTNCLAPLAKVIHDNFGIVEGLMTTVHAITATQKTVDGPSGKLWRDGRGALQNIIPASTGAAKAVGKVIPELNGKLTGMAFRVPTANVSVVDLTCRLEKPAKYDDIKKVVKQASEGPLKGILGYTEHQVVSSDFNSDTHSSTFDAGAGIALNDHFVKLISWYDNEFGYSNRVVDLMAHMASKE

[14] = target: Phospholipase A2 (Homo sapiens, UniProt P04054); format: functional;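 also: confirmatory dose-response counterscreen on phospholipase A2, testing hits that came from an ultra-high-throughput screen for ATG4B inhibitors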
Phospholipase A2, sequence (P04054 whole entry): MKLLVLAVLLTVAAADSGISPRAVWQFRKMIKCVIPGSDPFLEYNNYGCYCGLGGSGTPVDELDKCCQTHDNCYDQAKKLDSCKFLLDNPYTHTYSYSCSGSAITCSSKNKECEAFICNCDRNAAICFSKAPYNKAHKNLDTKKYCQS

[15] = target: Ephrin type-A receptor 4 (Mus musculus, UniProt Q03137); test: EphA4 ligand-binding antagonists – biochemical, colorimetric, mouse EphA4, primary screen (AID 689); format: functional
Ephrin type-A receptor 4, sequence (Q03137 whole entry): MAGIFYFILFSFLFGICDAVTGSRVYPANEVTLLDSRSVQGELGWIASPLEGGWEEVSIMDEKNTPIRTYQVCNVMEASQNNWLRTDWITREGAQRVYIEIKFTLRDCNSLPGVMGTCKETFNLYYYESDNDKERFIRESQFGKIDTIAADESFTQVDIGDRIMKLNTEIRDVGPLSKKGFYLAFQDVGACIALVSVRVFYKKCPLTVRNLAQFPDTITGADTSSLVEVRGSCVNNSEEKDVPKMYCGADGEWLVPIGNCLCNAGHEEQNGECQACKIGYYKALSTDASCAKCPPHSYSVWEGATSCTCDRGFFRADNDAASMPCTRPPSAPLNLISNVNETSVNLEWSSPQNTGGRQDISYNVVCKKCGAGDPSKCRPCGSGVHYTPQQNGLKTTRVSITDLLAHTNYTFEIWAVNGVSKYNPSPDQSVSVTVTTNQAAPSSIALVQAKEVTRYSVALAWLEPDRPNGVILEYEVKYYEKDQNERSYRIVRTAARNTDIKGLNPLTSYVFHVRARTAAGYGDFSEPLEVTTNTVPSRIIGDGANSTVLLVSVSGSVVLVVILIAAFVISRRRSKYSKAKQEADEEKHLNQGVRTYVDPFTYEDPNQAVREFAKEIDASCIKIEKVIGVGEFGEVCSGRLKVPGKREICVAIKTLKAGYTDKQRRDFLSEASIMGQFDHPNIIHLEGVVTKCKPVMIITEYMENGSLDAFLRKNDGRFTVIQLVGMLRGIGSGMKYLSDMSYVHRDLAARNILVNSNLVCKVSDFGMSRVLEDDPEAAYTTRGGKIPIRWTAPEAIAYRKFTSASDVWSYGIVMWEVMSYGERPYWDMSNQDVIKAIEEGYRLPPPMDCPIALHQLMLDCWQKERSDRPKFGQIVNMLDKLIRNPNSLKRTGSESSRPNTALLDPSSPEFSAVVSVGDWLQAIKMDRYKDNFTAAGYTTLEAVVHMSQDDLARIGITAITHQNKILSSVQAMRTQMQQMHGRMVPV

[16] = target: T6, Dual specificity protein phosphatase 6 (Rattus norvegicus, UniProt Q64346)
T6 sequence (Q64346 whole entry): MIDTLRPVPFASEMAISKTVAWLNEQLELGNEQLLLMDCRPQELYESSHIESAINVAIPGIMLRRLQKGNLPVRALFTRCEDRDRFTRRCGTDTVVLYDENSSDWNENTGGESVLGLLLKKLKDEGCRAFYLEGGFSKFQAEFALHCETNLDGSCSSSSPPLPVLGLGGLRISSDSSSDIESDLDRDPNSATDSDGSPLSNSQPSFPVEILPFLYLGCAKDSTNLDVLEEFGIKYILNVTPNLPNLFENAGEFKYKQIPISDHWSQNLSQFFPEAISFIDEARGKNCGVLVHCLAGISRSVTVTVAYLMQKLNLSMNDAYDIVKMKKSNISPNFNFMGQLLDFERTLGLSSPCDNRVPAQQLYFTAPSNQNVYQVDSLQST

[17] = viability loss of HPDE-C7K cells – cell-based, fluorescence, HTS, primary screen (AID 431); format: functional; conditions: Homo sapiens
[18] = target: T7, Cysteine protease ATG4B (Homo sapiens, UniProt Q9Y4P1); format: functional;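 also: Fluorescence-based dose-response confirmation assay measuring inhibition of ATG4B activity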
T7 sequence (Q9Y4P1 whole entry): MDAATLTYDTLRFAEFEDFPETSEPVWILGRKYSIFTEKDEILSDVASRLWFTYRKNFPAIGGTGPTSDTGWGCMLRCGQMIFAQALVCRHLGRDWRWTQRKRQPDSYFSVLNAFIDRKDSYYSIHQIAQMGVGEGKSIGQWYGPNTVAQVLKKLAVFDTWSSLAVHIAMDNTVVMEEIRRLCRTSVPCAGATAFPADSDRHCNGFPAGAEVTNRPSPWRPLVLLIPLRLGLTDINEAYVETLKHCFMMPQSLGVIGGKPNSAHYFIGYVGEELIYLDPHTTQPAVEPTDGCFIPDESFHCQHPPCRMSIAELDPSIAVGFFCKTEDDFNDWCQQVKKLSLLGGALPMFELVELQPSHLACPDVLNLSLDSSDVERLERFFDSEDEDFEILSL

[19] = target: T6, Dual specificity protein phosphatase 6; format: functional
[20] = target: Dual specificity protein phosphatase 3 (Homo sapiens, UniProt P51452); test: SAR VHR1 Fluorescent Assay for In Vitro dose response studies. [Related pubchem assays (depositor defined):AID1654, AID1661, AID1878, AID1992, AID2004, AID2070, AID2085]; format: functional
Dual specificity protein phosphatase 3, sequence (P51452 whole entry): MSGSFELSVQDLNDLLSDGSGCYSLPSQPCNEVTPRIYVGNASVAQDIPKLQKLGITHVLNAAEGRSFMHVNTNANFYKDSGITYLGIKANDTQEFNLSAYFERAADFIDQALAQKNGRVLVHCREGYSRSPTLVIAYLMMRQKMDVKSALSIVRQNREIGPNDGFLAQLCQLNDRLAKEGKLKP

[21] = target: T5, Tyrosine-protein phosphatase non-receptor type 7; format: functional

**Q.** With `CCC1(C)NC(=O)N(CC(=O)N2N=C(c3ccccc3)CC2c2ccc(OC)cc2)C1=O` (stereo not drawn) as the molecule, how does the EC50 [1] read?
**A.** The EC50 was 16.1 µM (active).

**Q.** Which CC50 [2] does the source give for `CCCCN(CC)CCNC(=O)c1cc2c(=O)n(C)c3ccccc3c2s1` here?
**A.** The CC50 was 69 µM (active).

**Q.** What about the EC50 [3] of the same molecule?
**A.** Its EC50 is 0.07 µM (active).

**Q.** What about the IC50 [4] of the same molecule?
**A.** Its IC50 is > 20 µM (inactive).

**Q.** And the EC50 [5]?
**A.** The EC50 was > 60 µM (not active).

**Q.** And the EC50 [6]?
**A.** Its EC50 is 2.29 µM (active).

**Q.** What does the source list for `O=C1C(=Cc2ccco2)CCC1=Cc1ccco1`?
**A.** AC50 [7]: 63 µM (active); IC50 [8]: 32.4 µM (active); IC50 [9]: > 71.5 µM (inactive)

**Q.** With `Cc1cccc(NC(=O)C2CCN(S(=O)(=O)c3c(C)nc(O)nc3O)CC2)c1` as the molecule, how does the EC50 [1] read?
**A.** Its EC50 is 8.65 µM (active).

**Q.** For `Cc1cc2oc(C(=O)N(Cc3ccccc3)C3CCS(=O)(=O)C3)cc(=O)c2cc1Cl` (stereo not drawn), which EC50 [3] is on record?
**A.** Its EC50 is 3.76 µM (active).

**Q.** For `Clc1ccccc1CSc1nnc(-c2ccco2)c(-c2ccco2)n1`, which IC50 [10] is on record?
**A.** Its IC50 is 54.4 µM (active).

**Q.** What about the IC50 [11] of the same molecule?
**A.** Its IC50 is 0.329 µM (active).

**Q.** And the EC50 [12]?
**A.** The EC50 was 15 µM (active).

**Q.** And the IC50 [13]?
**A.** Its IC50 is > 100 µM (not active).

**Q.** What about the IC50 [14] of the same molecule?
**A.** The IC50 was 7.53 µM (active).

**Q.** And the IC50 [15]?
**A.** The IC50 was 2.46 µM (active).

**Q.** And the IC50 [16]?
**A.** The IC50 was 31.2 µM (active).

**Q.** And the EC50 [17]?
**A.** The EC50 was 15.4 µM (active).

**Q.** What about the IC50 [18] of the same molecule?
**A.** The IC50 was 11.4 µM (active).

**Q.** What about the IC50 [19] of the same molecule?
**A.** The IC50 was 24.2 µM (active).

**Q.** And the IC50 [20]?
**A.** The IC50 was 19.7 µM (active).

**Q.** What about the IC50 [21] of the same molecule?
**A.** The IC50 was 10.4 µM (active).

— ChEMBL document CHEMBL1201862, “PubChem BioAssay data set” (2004)
